This is an account of results in US20210395313A1, “PEPTIDE PAC1 ANTAGONISTS” (AMGEN INC., priority 2017, published 2021).

One assay concerns the target T1, rat PAC1 receptor (Rattus norvegicus, UniProt P32215).
T1 construct: SHSY-5Y (human neuroblastoma cell line) and RG-2 (rat glioma cell line) cells endogenously express human and rat PAC1 receptors, respectively; endogenous in cells; host or cells: RG-2 rat glioma cells
T1 sequence (P32215 20-523): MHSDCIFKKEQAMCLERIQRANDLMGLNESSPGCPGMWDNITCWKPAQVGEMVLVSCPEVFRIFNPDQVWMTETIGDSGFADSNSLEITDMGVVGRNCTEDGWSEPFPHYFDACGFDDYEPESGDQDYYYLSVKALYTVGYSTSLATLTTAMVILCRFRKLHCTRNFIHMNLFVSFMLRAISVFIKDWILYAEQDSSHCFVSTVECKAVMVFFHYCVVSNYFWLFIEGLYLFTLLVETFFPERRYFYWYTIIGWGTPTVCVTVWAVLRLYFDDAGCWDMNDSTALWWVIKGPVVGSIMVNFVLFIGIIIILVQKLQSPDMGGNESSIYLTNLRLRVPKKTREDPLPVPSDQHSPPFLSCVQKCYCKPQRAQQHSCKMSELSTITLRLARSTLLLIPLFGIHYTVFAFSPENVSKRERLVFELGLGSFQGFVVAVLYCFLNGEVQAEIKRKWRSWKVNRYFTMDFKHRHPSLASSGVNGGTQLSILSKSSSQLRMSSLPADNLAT
The assay is described as follows: LANCE Ultra cAMP accumulation antagonist assay in RG-2 cells.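 Further: RG-2 rat glioma cells endogenously expressing PAC1, test peptide preincubated 30 min, then PAC1 agonist added at its EC80 for 15 min, cAMP accumulation read by LANCE Ultra.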 In kind it is cell-based. A general note: Time-resolved FRET reads energy transfer from a long-lived donor to a nearby acceptor.

A further assay deals with T2, human PAC1 receptor (Homo sapiens, UniProt P41586).
T2 construct: SHSY-5Y (human neuroblastoma cell line) and RG-2 (rat glioma cell line) cells endogenously express human and rat PAC1 receptors, respectively; endogenous in cells; host or cells: SHSY-5Y human neuroblastoma cells
T2 sequence (P41586 21-468): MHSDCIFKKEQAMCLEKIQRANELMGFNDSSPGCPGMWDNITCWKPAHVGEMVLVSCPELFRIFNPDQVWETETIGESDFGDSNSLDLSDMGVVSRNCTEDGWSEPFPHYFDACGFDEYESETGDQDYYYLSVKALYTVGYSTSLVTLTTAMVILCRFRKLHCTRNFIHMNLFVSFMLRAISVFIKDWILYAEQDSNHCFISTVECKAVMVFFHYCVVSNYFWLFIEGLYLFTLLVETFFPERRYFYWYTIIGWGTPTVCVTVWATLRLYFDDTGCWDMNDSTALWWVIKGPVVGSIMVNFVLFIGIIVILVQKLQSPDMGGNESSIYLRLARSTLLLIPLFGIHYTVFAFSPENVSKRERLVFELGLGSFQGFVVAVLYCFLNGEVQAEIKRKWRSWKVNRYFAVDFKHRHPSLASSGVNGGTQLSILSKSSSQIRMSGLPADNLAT
The assay is described as follows: LANCE Ultra cAMP accumulation antagonist assay in SHSY-5Y cells.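 Further: inhibition of cAMP accumulation evoked by PAC1 agonist at its EC80 in SHSY-5Y cells endogenously expressing receptor, 30 min preincubation then 15 min agonist, TR-FRET readout.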 In kind it is cell-based.

Where a SMILES comes first, the peptide text is derived from it. Bridges are numbered along the chain shown (N, C = ends). Where no end group is shown, it is not given here.

As usually defined, the IC50 is the concentration at which inhibition is half-maximal. Higher therefore signals lower potency.

Protocol for human PAC1 receptor: In order to determine the potency of peptide antagonists at the PAC1 receptor, functional cAMP accumulation assays using LANCE Ultra cAMP assay kit to measure the agonist and antagonist activity of PAC1 peptides were used. SHSY-5Y (human neuroblastoma cell line) and RG-2 (rat glioma cell line) cells endogenously express human and rat PAC1 receptors, respectively. Agonist activity of PAC1 peptides was tested by incubating with SHSY-5Y at 2,000 cells per well or RG-2 at 5,000 cells per well for 15 minutes at room temperature. PAC1 receptor agonist PACAP38 or maxadilan was included as a positive control. The reaction was stopped by adding detection mixture, europium (Eu) chelate-labeled cAMP tracer and cAMP-specific monoclonal antibodies labeled with the ULight™ dye, to all wells followed by a 60-minute incubation at room temperature. The assay plates were then read on an EnVision instrument at an emission wavelength of 665 and 615 nm and data were analyzed using Genedata Screener or GraphPad Prism software. A similar procedure was used in the antagonist assays by using a fixed concentration of PAC1 agonist. The concentrations of agonists were chosen based on their ECK) values at PAC1 receptors in SHSY-5Y or RG-2 cells. SHSY-5Y or RG-2 cells were added into 96-well half-area white plates. Serially diluted PAC1 peptides at ten concentrations were added and incubated for 30 minutes at room temperature. PAC1 agonist at EC80 concentration was then added and further incubated for 15 minutes at room temperature. The reaction was stopped by adding detection mixture to all wells followed by a 60-minute incubation at room temperature. The assay plates were read and analyzed the same way as that of agonist assay. Cells, agonists, and PAC1 peptides were prepared in freshly made assay buffer (F-12, 0.5 mM IBMX, 0.1 or 0.4% BSA (pH 7.4)). Detection mixture was made by mixing a 1/50 dilution of the Eu-cAMP tracer stock solution in cAMP Detection Buffer and a 1/150 dilution of the ULight-anti-cAMP stock solution in cAMP Detection Buffer. Europium (Eu) chelate-labeled cAMP tracer, cAMP-specific monoclonal antibodies labeled with the ULight™ dye, BSA, and detection buffer were provided in LANCE Ultra cAMP Kit from PerkinElmer

As for `CC[C@H](C)[C@H](NC(=O)[C@H](C)NC(=O)[C@H](CCCCN)NC(=O)[C@H](CCCNC(=N)N)NC(=O)[C@H](Cc1ccccc1)NC(=O)[C@H](CCC(N)=O)NC(=O)[C@@H]1CSSC[C@H](N)C(=O)N[C@@H](CC(=O)O)C(=O)N[C@@H](C)C(=O)N[C@@H]([C@@H](C)O)C(=O)N1)C(=O)N[C@@H](CC(=O)O)C(=O)N[C@@H](CC(=O)O)C(=O)N[C@H]1CSSC[C@@H](C(=O)N[C@@H](CCSC)C(=O)N[C@@H](CCCCN)C(=O)N[C@@H](CCC(N)=O)C(=O)N[C@@H](CCCCN)C(=O)N[C@@H](CCCCN)C(=O)N[C@@H](CCCCN)C(=O)N[C@@H](CCC(=O)O)C(=O)N[C@@H](Cc2c[nH]c3ccccc23)C(=O)N[C@@H](CCCCN)C(=O)N[C@@H](C)C(=O)NCC(=O)N[C@@H](Cc2ccc(O)cc2)C(=O)O)NC(=O)[C@H](C)NC(=O)[C@H](CCCCN)NC(=O)[C@H](Cc2ccccc2)NC(=O)[C@H](C(C)C)NC(=O)[C@H](CO)NC(=O)[C@H](CO)NC(=O)[C@H](Cc2c[nH]cn2)NC(=O)[C@H](Cc2c[nH]cn2)NC(=O)[C@H](C)NC(=O)[C@H](CCC(N)=O)NC(=O)[C@H](CCCNC(=N)N)NC(=O)[C@H](C(C)C)NC1=O` [compound 3] (H-CDATCQFRKAIDDCVRQAHHSSVFKACMKQKKKEWKAGY-OH; disulfide 1-5, 14-27), the IC50 on rat PAC1 receptor and at human PAC1 receptor was 0.01 to 1 nM each time.
As for “CDATCQFRKAIDDCDRQAHHSNVPGSVFKACMKQKKKEWKAG (disulfide 1-5, 14-31) [compound 81]”, the IC50 on rat PAC1 receptor was 0.01 to 1 nM; at human PAC1 receptor, 1 to 100 nM.
For “CDATCQFRKAIDDCQKQAHHSNVPGSVFKACMKFRRTLWKAG-NH2 (disulfide 1-5, 14-31) [compound 89]”, in that order: 0.01 to 1 nM and 1 to 100 nM.
The like results for “CDATCQFRKAIDDCAKQAHHSNVPGSVFKACMKQKKKEWKAGH (disulfide 1-5, 14-31) [SEQ ID NO 152]” were, in that order, 0.01 to 1 nM and 0.01 to 1 nM.
The like results for “CDATCQFRKAIDDCDRQAHHSNVPGSVFKACMKQKKKEFKAGH (disulfide 1-5, 14-31) [compound 155]” were, in that order, 0.01 to 1 nM and 1 to 100 nM.
On to `CC[C@H](C)[C@H](NC(=O)[C@H](C)NC(=O)[C@H](CCCCN)NC(=O)[C@H](CCCNC(=N)N)NC(=O)[C@H](Cc1ccccc1)NC(=O)[C@H](CCC(N)=O)NC(=O)[C@@H]1CSSC[C@H](N)C(=O)N[C@@H](CC(=O)O)C(=O)N[C@@H](C)C(=O)N[C@@H]([C@@H](C)O)C(=O)N1)C(=O)N[C@@H](CC(=O)O)C(=O)N[C@@H](CC(=O)O)C(=O)N[C@H]1CSSC[C@@H](C(=O)N[C@@H](CCSC)C(=O)N[C@@H](CCCCN)C(=O)N[C@@H](CCC(N)=O)C(=O)N[C@@H](CCCCN)C(=O)N[C@@H](CCCCN)C(=O)N[C@@H](CCCCN)C(=O)N[C@@H](CCC(=O)O)C(=O)N[C@@H](Cc2c[nH]c3ccccc23)C(=O)N[C@@H](CCCCN)C(=O)N[C@@H](C)C(=O)NCC(=O)N[C@@H](Cc2c[nH]cn2)C(=O)O)NC(=O)[C@H](C)NC(=O)[C@H](CCCCN)NC(=O)[C@H](Cc2ccccc2)NC(=O)[C@H](C(C)C)NC(=O)[C@H](CO)NC(=O)[C@H](CO)NC(=O)[C@H](Cc2c[nH]cn2)NC(=O)[C@H](Cc2c[nH]cn2)NC(=O)[C@H](C)NC(=O)[C@H](CCC(N)=O)NC(=O)[C@H](CCCCN)NC(=O)[C@H](C)NC1=O` [compound 26] (H-CDATCQFRKAIDDCAKQAHHSSVFKACMKQKKKEWKAGH-OH; disulfide 1-5, 14-27), for which the IC50 on rat PAC1 receptor and against human PAC1 receptor was 0.01 to 1 nM in each case.
Consider “CDATCQFRKAIDDCAKQAHHSNVPGSVFKACMKQKKKEFKAGY (disulfide 1-5, 14-31) [SEQ ID NO 56]”, for which the IC50 against rat PAC1 receptor and against human PAC1 receptor was 0.01 to 1 nM in each case.
As for “CDATCQFRKAIDDCDKQAHHSNVPGSVFKACMKQKKKEFQAG-NH2 (disulfide 1-5, 14-31) [compound 169]”, the IC50 against rat PAC1 receptor and on human PAC1 receptor was 0.01 to 1 nM each time.
